Data reported in US11427549B2, “Pyrimidinyloxy benzo-fused compounds as herbicides” (FMC Corporation, priority 2017, dated 2022).

How the values were obtained:
[1] = tested on: foxtail, giant (giant foxtail, Setaria faberii); assay: Test A postemergence, foxtail, giant; type: in vivo; settings: Setaria faberi, post-emergence, 240 h, 0 to 100 scale (0 no effect, 100 complete control), read-out: Plant response rating, Foxtail, Giant; for pest or weed control at 31 g/ha: 31 g ai/ha; for pest or weed control at 125 g/ha: 125 g ai/ha
From the text: (§1) Seeds of plant species selected from barnyardgrass (Echinochloa crus-galli), kochia (Kochia scoparia), ragweed (common ragweed, Ambrosia elatior), ryegrass, Italian (Italian ryegrass, Lolium multiflorum), foxtail, giant (giant foxtail, Setaria faberii), foxtail, green (green foxtail, Setaria viridis) and pigweed (Amaranthus retroflexus) were planted into a blend of loam soil and sand and treated preemergence with a directed soil spray using test chemicals formulated in a non-phytotoxic solvent mixture which included a surfactant.
(§2) At the same time, plants selected from these weed species and also wheat (Triticum aestivum), corn (Zea mays), blackgrass (Alopecurus myosuroides), and galium (catchweed bedstraw, Galium aparine) were planted in pots containing the same blend of loam soil and sand and treated with postemergence applications of test chemicals formulated in the same manner. Plants ranged in height from 2 to 10 cm and were in the one- to two-leaf stage for the postemergence treatment. Treated plants and untreated controls were maintained in a greenhouse for approximately 10 days, after which time all treated plants were compared to untreated controls and visually evaluated for injury. […] A dash (-) response means no test result.

[2] = tested on: foxtail, green (green foxtail, Setaria viridis); assay: Test A preemergence, foxtail, green; type: in vivo; settings: Setaria, pre-emergence, 240 h, 0 to 100 scale (0 no effect, 100 complete control), read-out: Plant response rating, Foxtail, Green
From the text: as §1, §2

[3] = tested on: foxtail, green (green foxtail, Setaria viridis); assay: Test A postemergence, foxtail, green; type: in vivo; settings: Setaria, post-emergence, 240 h, 0 to 100 scale (0 no effect, 100 complete control), read-out: Plant response rating, Foxtail, Green
From the text: as §1, §2

melting point	SMILES	pest or weed control at 31 g/ha [1]	pest or weed control at 125 g/ha [1]	pest or weed control at 31 g/ha ([2]; 31 g ai/ha)	pest or weed control at 125 g/ha ([2]; 125 g ai/ha)	pest or weed control at 31 g/ha ([3]; 31 g ai/ha)	pest or weed control at 125 g/ha ([3]; 125 g ai/ha)
122 to 126 °C	O=C1Cc2cccc(Oc3ncc(Cl)cn3)c2C(CCC(F)(F)F)O1 (centres unmarked) [Compound 28, 8-[(5-Chloro-2-pyrimidinyl)oxy]-1,4-dihydro-1-(3,3,3-trifluoropropyl)-3H-2-benzopyran-3-one]	10%	20%	–	–	–	–
136 to 140 °C	CCCC1OC(=O)Cc2cccc(Oc3ncc(Cl)cn3)c21 (centres unmarked) [Compound 35, 8-[(5-Chloro-2-pyrimidinyl)oxy]-1,4-dihydro-1-propyl-3H-2-benzopyran-3-one]	–	–	0%	10%	10%	10%
93 to 97 °C	O=C1OC(CCCCC(F)(F)F)Cc2c(Oc3ncc(Cl)cn3)cccc21 (centres unmarked) [Compound 31, 5-[(5-Chloro-2-pyrimidinyl)oxy]-3,4-dihydro-3-(5,5,5-trifluoropentyl)-1H-2-benzopyran-1-one]	0%	0%	–	–	–	–

Further lines, the compound ahead of its results:

SMILES	melting point	pest or weed control at 31 g/ha [1]	pest or weed control at 125 g/ha [1]	pest or weed control at 31 g/ha ([2]; 31 g ai/ha)	pest or weed control at 125 g/ha ([2]; 125 g ai/ha)	pest or weed control at 31 g/ha ([3]; 31 g ai/ha)	pest or weed control at 125 g/ha ([3]; 125 g ai/ha)
O=C1O[C@@H](CCC(F)(F)F)c2c(Oc3ncc(Cl)cn3)cccc21 [Compound 18, (3S)-4-[(5-Chloro-2-pyrimidinyl)oxy]-3-(3,3,3-trifluoropropyl)-1(3H)-isobenzofuranone]	99 to 101 °C	0%	0%	–	–	–	–
O=C1OC(CCC(F)(F)F)Cc2c(Oc3ncc(Cl)cn3)cccc21 (centres unmarked) [Compound 23, 5-[(5-Chloro-2-pyrimidinyl)oxy]-3,4-dihydro-3-(3,3,3-trifluoropropyl)-1H-2-benzopyran-1-one]	117 to 121 °C	0%	10%	–	–	–	–
O=C1Cc2cccc(Oc3ncc(Cl)cn3)c2C(CCCC(F)(F)F)O1 (centres unmarked) [Compound 17, 8-[(5-Chloro-2-pyrimidinyl)oxy]-1,4-dihydro-1-(4,4,4-trifluorobutyl)-3H-2-benzopyran-3-one]	125 to 129 °C	20%	40%	–	–	–	–
O=C1O[C@H](CCC(F)(F)F)c2c(Oc3ncc(Cl)cn3)cccc21 [Compound 19, (3R)-4-[(5-Chloro-2-pyrimidinyl)oxy]-3-(3,3,3-trifluoropropyl)-1(3H)-isobenzofuranone]	94 to 99 °C	60%	90%	–	–	–	–
